Assays:
[1] = BPR: parent drug in brain and plasma of rats; type: in vivo; settings: rat, % change vs. non-deuterated material
Method: (§1) The key PK parameters (presented as a % change vs. non-deuterated materials) are presented in Table 3 to include half-life (T1/2), area under the curve (AUC), bioavailability (F) and blood-to-plasma ration (BPR). Pharmacokinetics of the deuterated tryptamines was studied in rats. In a typical experiment, run as a cassette dosing, two groups of 5 Wistar female rats (200-250 g) with surgically inserted jugular vein catheter (Charles River, Andover, MA) were fasted for 12 h and then administered 5 mg/kg of the deuterated and 5 mg/kg of the related non-deuterated analog, by oral gavage or via a catheter for each group. At time points 0, 15, 30, 60 min, and 2, 4, 8, and 24 h, the resulting plasma was analyzed for the parent molecule using LC/MS spectroscopy. Two separate groups of 5 animals were used for determining blood-to-plasma ratio (BPR). Each group was sacrificed at time points 15 and 30 min, respectively, and the concentration of the parent drug was determined in the brain and plasma by LC/MS spectroscopy.

[2] = PK study in rats, cassette dosing of deuterated and non-deuterated analog; type: in vivo; settings: rat; 5 mg/kg; oral gavage or via catheter; % change vs. non-deuterated material
Method: as §1

hrMAO-A = biological target: T1, hrMAO-A (Homo sapiens, UniProt P21397); assay: Metabolic stability in the presence of hrMAO-A; type: in vitro ADME; settings: for MAO (metabolized or not) / MAO, % (half-life as % vs. the related nondeuterated compound): MAO-A; for MAO (metabolized or not): last assay time point 120 min; for MAO, % (half-life as % vs. the related nondeuterated compound): values in square brackets are within 10% difference (assay's accuracy), no deuteration effect
T1 construct: purchased XenoTech Lot #8213001
T1 sequence (P21397 1-527): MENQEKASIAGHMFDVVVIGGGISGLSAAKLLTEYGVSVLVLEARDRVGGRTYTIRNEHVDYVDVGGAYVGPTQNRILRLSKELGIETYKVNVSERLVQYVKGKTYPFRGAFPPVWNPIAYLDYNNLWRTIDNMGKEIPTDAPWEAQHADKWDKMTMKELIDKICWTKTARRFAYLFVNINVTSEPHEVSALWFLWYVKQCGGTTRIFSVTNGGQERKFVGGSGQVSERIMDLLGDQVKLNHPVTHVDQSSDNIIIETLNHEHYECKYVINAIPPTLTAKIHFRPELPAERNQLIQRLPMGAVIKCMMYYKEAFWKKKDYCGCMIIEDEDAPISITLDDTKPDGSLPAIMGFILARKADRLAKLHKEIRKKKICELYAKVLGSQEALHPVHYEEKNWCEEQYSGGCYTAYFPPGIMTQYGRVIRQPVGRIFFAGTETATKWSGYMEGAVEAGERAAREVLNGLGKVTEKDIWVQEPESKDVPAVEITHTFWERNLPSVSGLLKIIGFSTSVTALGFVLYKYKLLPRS
Method: The reaction mixture was prepared as described below. The co-dosed TAs were added into the reaction mixture at a final concentration of 1 microM each. The positive control, kynuramine (25 microM), was run simultaneously with the TAs in a separate reaction. The reaction mixture (without TAs or kynuramine) was equilibrated in a shaking water bath at 37° C. for 5 minutes. The reaction was initiated by the addition of the TAs or kynuramine, and the mixture was incubated in a shaking water bath at 37° C. Aliquots (100 microL) of the TA reaction mixture were withdrawn at 0, 5, 10, 20, 30, 60, and 120 minutes. Aliquots (100 microL) of the positive control reaction mixture were withdrawn at 0 and 30 minutes. TA and kynuramine samples were immediately combined with 100 microL of ice-cold 100% MeCN containing 0.1% formic acid and IS to terminate the reaction. The samples were then mixed and centrifuged to precipitate proteins. All TA samples were assayed by LC-HRAMS. The PARR (analyte to IS) at each time point was compared to the PARR at time 0 to determine the percent remaining at each time point. Reaction composition: hrMAO 0.02 mg/mL; Potassium Phosphate, pH 7.4 100 mM; Magnesium Chloride 5 mM; Test Articles (each) 1 microM.

rat liver microsomes = assay: Metabolic stability in rat liver microsomes (RLM); settings: RLM; for RLM (metabolized or not): last assay time point 120 min; for RLM, % (half-life as % vs. the related nondeuterated compound): values in square brackets are within 10% difference (assay's accuracy), no deuteration effect

[2H]C([2H])(Cc1c[nH]c2cccc(O)c12)N(C)C [PI-α,α-d2]
Deuterium Kinetic Isotope Effect (% change), BPR, 15 min ([1]; 15 min): 100% | Deuterium Kinetic Isotope Effect (% change), BPR, 30 min ([1]; 30 min): 150% | Deuterium Kinetic Isotope Effect (% change), AUC [2]: 75% | Deuterium Kinetic Isotope Effect (% change), T1/2 [2]: 50%

CNCCc1c[nH]c2cccc(O)c12 [reference compound]
MAO (metabolized or not) (hrMAO-A): R | RLM (metabolized or not) (rat liver microsomes): R

[2H]C([2H])(c1c[nH]c2ccccc12)C([2H])([2H])N(C)C [DMT-d4]
% Remaining of Initial, 0 min (hrMAO-A; hrMAO-A, 0 min, Table 3, four test articles): 100% | % Remaining of Initial, 5 min (hrMAO-A; hrMAO-A, 5 min, Table 3, four test articles): 106% | % Remaining of Initial, 10 min (hrMAO-A; hrMAO-A, 10 min, Table 3, four test articles): 111% | % Remaining of Initial, 20 min (hrMAO-A; hrMAO-A, 20 min, Table 3, four test articles): 102% | % Remaining of Initial, 30 min (hrMAO-A; hrMAO-A, 30 min, Table 3, four test articles): 98.2% | % Remaining of Initial, 60 min (hrMAO-A; hrMAO-A, 60 min, Table 3, four test articles): 77.4% | % Remaining of Initial, 120 min (hrMAO-A; hrMAO-A, 120 min, Table 3, four test articles): 61.4% | CLint (hrMAO-A; hrMAO-A, Table 3): 0.119 mL/min/mg protein | Half-life (hrMAO-A; hrMAO-A, Table 3, four test articles): > 2 h | % Remaining of Initial, 0 min (rat liver microsomes; 0 min, Table 2, four test articles): 100% | % Remaining of Initial, 5 min (rat liver microsomes; 5 min, Table 2, four test articles): 70.7% | % Remaining of Initial, 10 min (rat liver microsomes; 10 min, Table 2, four test articles): 59.6% | % Remaining of Initial, 20 min (rat liver microsomes; 20 min, Table 2, four test articles): 51.8% | % Remaining of Initial, 30 min (rat liver microsomes; 30 min, Table 2, four test articles): 46.3% | % Remaining of Initial, 60 min (rat liver microsomes; 60 min, Table 2, four test articles): 34.2% | % Remaining of Initial, 120 min (rat liver microsomes; 120 min, Table 2, four test articles): 23.7%

[2H]C([2H])(Cc1c[nH]c2ccccc12)NCC
MAO, % (half-life as % vs. the related nondeuterated compound) (hrMAO-A): 145% | RLM, % (half-life as % vs. the related nondeuterated compound) (rat liver microsomes): 138%

CNCCc1c[nH]c2ccccc12 [reference compound]
MAO (metabolized or not) (hrMAO-A): R | RLM (metabolized or not) (rat liver microsomes): R

CCN(C)CCc1c[nH]c2ccccc12 [reference compound]
MAO (metabolized or not) (hrMAO-A): R | RLM (metabolized or not) (rat liver microsomes): R

[2H]C([2H])(Cc1c[nH]c2cccc(O)c12)NC
MAO, % (half-life as % vs. the related nondeuterated compound) (hrMAO-A): 395% | RLM, % (half-life as % vs. the related nondeuterated compound) (rat liver microsomes): 154%

[2H]C([2H])(NC)C([2H])([2H])c1c[nH]c2cccc(O)c12
MAO, % (half-life as % vs. the related nondeuterated compound) (hrMAO-A): 396% | RLM, % (half-life as % vs. the related nondeuterated compound) (rat liver microsomes): 160%

[2H]C([2H])(c1c[nH]c2ccc(O)cc12)C([2H])([2H])N(C)C
MAO, % (half-life as % vs. the related nondeuterated compound) (hrMAO-A): 418% | RLM, % (half-life as % vs. the related nondeuterated compound) (rat liver microsomes): 136%

[2H]C([2H])(Cc1c[nH]c2cccc(OC)c12)N(C)C
MAO, % (half-life as % vs. the related nondeuterated compound) (hrMAO-A): 335% | RLM, % (half-life as % vs. the related nondeuterated compound) (rat liver microsomes): 185%

[2H]C([2H])(Cc1c[nH]c2ccccc12)NC
MAO, % (half-life as % vs. the related nondeuterated compound) (hrMAO-A): 578% | RLM, % (half-life as % vs. the related nondeuterated compound) (rat liver microsomes): 182%

COc1ccc2[nH]cc(CCN(C)C)c2c1 [5-MeO-DMT, reference compound]
MAO (metabolized or not) (hrMAO-A): R | RLM (metabolized or not) (rat liver microsomes): R

[2H]C([2H])(c1c[nH]c2cccc(OC)c12)C([2H])([2H])N(C)CC
MAO, % (half-life as % vs. the related nondeuterated compound) (hrMAO-A): 291% | RLM, % (half-life as % vs. the related nondeuterated compound) (rat liver microsomes): 161%

[2H]C([2H])([2H])NC([2H])([2H])Cc1c[nH]c2cccc(O)c12
MAO, % (half-life as % vs. the related nondeuterated compound) (hrMAO-A): 466% | RLM, % (half-life as % vs. the related nondeuterated compound) (rat liver microsomes): 163%

[2H]c1[nH]c2c([2H])c([2H])c([2H])c([2H])c2c1CCN(C)C
MAO, % (half-life as % vs. the related nondeuterated compound) (hrMAO-A): [103] % | RLM, % (half-life as % vs. the related nondeuterated compound) (rat liver microsomes): [106] %

CCNCCc1c[nH]c2ccccc12 [reference compound]
MAO (metabolized or not) (hrMAO-A): R | RLM (metabolized or not) (rat liver microsomes): R

[2H]C([2H])(Cc1c[nH]c2ccc(OC)cc12)N(C)CC
MAO, % (half-life as % vs. the related nondeuterated compound) (hrMAO-A): 126% | RLM, % (half-life as % vs. the related nondeuterated compound) (rat liver microsomes): 117%
